# Experimental data as given in article PMC12217679 (Scientific Reports, 2025).
# Legend:
# [1] = system: hepatic NPC1L1; details: cited from earlier work
# [2] = system: mouse liver; details: cited from earlier work
# [3] = system: cholesterol metabolism; details: cited from earlier work
# [4] = target: T1, human intestinal alkaline phosphatase (hIAP) (Homo sapiens, UniProt P09923); assay: SPR competition of IIAEK binding to hIAP by PLP; details: IIAEK 297 μM, PLP 0, 1000 and 2000 μM, HBS-N pH 7.4
# T1 sequence (P09923 20-503 limits assumed): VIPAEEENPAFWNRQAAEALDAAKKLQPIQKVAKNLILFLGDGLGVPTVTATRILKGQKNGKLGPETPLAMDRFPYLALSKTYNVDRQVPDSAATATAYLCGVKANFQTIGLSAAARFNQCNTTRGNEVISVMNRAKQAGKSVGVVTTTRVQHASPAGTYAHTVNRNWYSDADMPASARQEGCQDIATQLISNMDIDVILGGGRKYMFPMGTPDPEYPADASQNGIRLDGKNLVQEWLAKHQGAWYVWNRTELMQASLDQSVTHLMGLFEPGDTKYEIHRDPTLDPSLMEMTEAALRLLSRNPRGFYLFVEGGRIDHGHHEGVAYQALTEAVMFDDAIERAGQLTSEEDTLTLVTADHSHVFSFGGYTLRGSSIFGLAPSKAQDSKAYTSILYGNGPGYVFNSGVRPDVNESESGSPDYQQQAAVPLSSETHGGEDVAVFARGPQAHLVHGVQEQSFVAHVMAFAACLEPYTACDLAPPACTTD
# [5] = target: DPP4; details: read-out: dissociation constant (Kd) with DPP4; cited from earlier work
Compound,improvement of cholesterol metabolism in animal studies [3],other results
O=C1[C@H](CC[C@H](O)c2ccc(F)cc2)[C@@H](c2ccc(O)cc2)N1c1ccc(F)cc1 [ezetimibe],–,hepatic NPC1L1-induced hepatic lipids accumulation [1]: eliminated; hepatic mRNA levels of Hmgcr and Srebf2 [2]: increasing hepatic mRNA levels of Hmgcr and Srebf2; liver cholesterol levels [2]: decreases liver cholesterol levels
HIRL,effectively improve cholesterol metabolism,–
"Cc1ncc(COP(=O)(O)O)c(C=O)c1O [PLP, Pyridoxal 5′-phosphate]",–,competition with IIAEK for hIAP [4]: competes for the interaction between IIAEK and hIAP in a concentration-dependent manner
VHVV,effectively improve cholesterol metabolism,–
VFVRN,effectively improve cholesterol metabolism,–
VAWWMY,effectively improve cholesterol metabolism,–
VSEE,effectively improve cholesterol metabolism,–
GEQQQPGM,effectively improve cholesterol metabolism,–
GLP-1: DPP4 substrate,–,Kd [5]: 153 µM
